Laboratory results taken from ChEMBL document CHEMBL1153534, “Design and synthesis of androgen receptor antagonists with bulky side chains for overcoming antiandrogen resistance” (J Med Chem, 2009).
Activity calls are given as the source filed them. No cut-off for these calls is given here.

Tests used:
Assay type in all cases: functional, cell-based
[1] = tested on: CWR22R; experiment: Cytotoxicity against human 22Rv1 cells after 72 hrs by MTT assay; conditions: 22Rv1, 72 h
[2] = Cytotoxicity against human C4-2B cells after 72 hrs by MTT assay; conditions: LNCaP C4-2B
[3] = tested on: PC-3; experiment: Cytotoxicity against human PC3 cells after 72 hrs by MTT assay
[4] = tested on: LNCaP; experiment: Cytotoxicity against human LNCAP cells after 72 hrs by MTT assay
[5] = Cytotoxicity against human MDA PCa 2b cells after 72 hrs by MTT assay
[6] = tested on: PC-3; experiment: Cytotoxicity against human PC3 cells at 150 uM after 72 hrs by MTT assay
[7] = Homo sapiens, PC-3, 72 h, read-out: IC50

Row | SMILES | IC50 [1] [µM] | IC50 [2] [µM] | IC50 [3, 7] [µM] | IC50 [4] [µM] | IC50 [5] [µM] | Activity [6] | IC50 ([3]; pc-3)
1 | COc1cc(/C=C/C(=O)/C(=C/c2ccc3ccccc3n2)C(=O)/C=C/C2=C(C)CCCC2(C)C)ccc1O | 5.1 | 5.3 | 15.2 | 8.5 | – | – | –
2 | CC1=C(/C=C/C(=O)/C(=C\c2ccc(O)cc2)C(=O)/C=C/c2ccc(O)cc2)C(C)(C)CCC1 | 4.7 | 4 | 6.7 | 4.5 | 4.7 | – | –
3 | CCOc1ccc(/C=C(\C(=O)/C=C/C2=C(C)CCCC2(C)C)C(=O)/C=C/c2ccc(OCC)c(OCC)c2)cc1OCC | 9.3 | 4.5 | 14.1 | 14.9 | 6.8 | – | –
4 | COc1cc(/C=C(\C(=O)/C=C/C2=C(C)CCCC2(C)C)C(=O)/C=C/c2cc(OC)c(O)c(OC)c2)cc(OC)c1O | 17.6 | 8.5 | 12.5 | 8.7 | 15.3 | – | –
5 | COc1cc(/C=C/C(O)=C/C(=O)/C=C/C2=C(C)CCCC2(C)C)cc(OC)c1O | 12.2 | 9.8 | 26.7 | 6.2 | – | – | –
6 | COc1ccc(/C=C/C(O)=C/C(=O)/C=C/C2=C(C)CCCC2(C)C)cc1O | – | 23.1 | 38.3 | 25.9 | – | – | –
7 | COc1cc(/C=C/C(=O)CC(=O)/C=C/c2ccc(O)c(OC)c2)ccc1O [CURCUMIN] | 18.3 | 6.1 | 16.8 | 8.5 | – | – | –
8 | COc1cc(/C=C/C(O)=C/C(=O)/C=C/C2=C(C)CCCC2(C)C)cc(OC)c1OC | 17.1 | 11.9 | > 50 | 21.4 | – | – | –
9 | CCn1c2ccccc2c2cc(/C=C(\C(=O)/C=C/C3=C(C)CCCC3(C)C)C(=O)/C=C/c3ccc(O)c(OC)c3)ccc21 | 2.4 | 2.3 | 7 | 2.3 | 8.1 | – | –
10 | COc1cc(/C=C/C(O)=C/C(=O)/C=C/C2=C(C)CCCC2(C)C)ccc1O | 10.6 | 44.3 | 15.8 | 20.6 | – | – | –
11 | CC(=O)/C=C/C1=C(C)CCCC1(C)C [BETA-IONONE] | – | – | – | 151 | – | inactive | Not Active
12 | COc1ccc(/C=C/C(O)=C/C(=O)/C=C/C2=C(C)CCCC2(C)C)cn1 | – | – | 52.2 | 25.1 | – | – | –
